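1) Cells in 96-well plates. 2) Compound, 48 h, 5 concentrations. 3) Linear interpolation between surrounding doses. 4) Unreached endpoint = highest concentration. TGI is the concentration that stops growth completely.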
Columns and labels:
Assay in all cases: DTP human tumour cell line panel, 48 h
DMS 114 small cell lung = system: DMS 114 small cell lung
786-0 renal = system: 786-0 renal
OVCAR-3 ovarian = system: OVCAR-3 ovarian
MALME-3M melanoma = system: MALME-3M melanoma
SF-539 CNS = system: SF-539 CNS
HT29 colon = system: HT29 colon
LOX IMVI melanoma = system: LOX IMVI melanoma
DMS 273 small cell lung = system: DMS 273 small cell lung
OVCAR-5 ovarian = system: OVCAR-5 ovarian
SNB-75 CNS = system: SNB-75 CNS
M19-MEL melanoma = system: M19-MEL melanoma
K-562 leukemia = system: K-562 leukemia
RPMI-8226 leukemia = system: RPMI-8226 leukemia
CAKI-1 renal = system: CAKI-1 renal
HOP-18 NSCLC = system: HOP-18 NSCLC
CCRF-CEM leukemia = system: CCRF-CEM leukemia
ACHN renal = system: ACHN renal
SK-MEL-28 melanoma = system: SK-MEL-28 melanoma
SW-620 colon = system: SW-620 colon
HL-60(TB) leukemia = system: HL-60(TB) leukemia
COLO 205 colon = system: COLO 205 colon
HCT-15 colon = system: HCT-15 colon
SK-MEL-5 melanoma = system: SK-MEL-5 melanoma
NCI-H226 lung = system: NCI-H226 lung
IGROV1 ovarian = system: IGROV1 ovarian
SF-268 CNS = system: SF-268 CNS
SNB-78 CNS = system: SNB-78 CNS
MOLT-4 leukemia = system: MOLT-4 leukemia
SNB-19 CNS = system: SNB-19 CNS
NCI-H460 lung = system: NCI-H460 lung
SN12C renal = system: SN12C renal
UACC-62 melanoma = system: UACC-62 melanoma
M14 melanoma = system: M14 melanoma
HOP-62 NSCLC = system: HOP-62 NSCLC
A498 renal = system: A498 renal
SF-295 CNS = system: SF-295 CNS
SK-OV-3 ovarian = system: SK-OV-3 ovarian
U251 CNS = system: U251 CNS
OVCAR-8 ovarian = system: OVCAR-8 ovarian
OVCAR-4 ovarian = system: OVCAR-4 ovarian
A549 NSCLC = system: A549 NSCLC
HCC-2998 colon = system: HCC-2998 colon
EKVX NSCLC = system: EKVX NSCLC
LXFL 529 NSCLC = system: LXFL 529 NSCLC
SK-MEL-2 melanoma = system: SK-MEL-2 melanoma
XF 498 CNS = system: XF 498 CNS
UACC-257 melanoma = system: UACC-257 melanoma
TK-10 renal = system: TK-10 renal
NCI-H522 lung = system: NCI-H522 lung
HCT-116 colon = system: HCT-116 colon
UO-31 renal = system: UO-31 renal
HOP-92 NSCLC = system: HOP-92 NSCLC
KM20L2 colon = system: KM20L2 colon
NCI-H23 lung = system: NCI-H23 lung
KM12 colon = system: KM12 colon
RXF 393 renal = system: RXF 393 renal
SR leukemia = system: SR leukemia

Measured: TGI

COc1cc(-c2cc(=O)c3ccccc3o2)ccc1N
77.5 µM: CAKI-1 renal
71.5 µM: HL-60(TB) leukemia
83.2 µM: SNB-75 CNS
96.6 µM: NCI-H226 lung
not listed: SR leukemia
> 100 µM: all other assays above

NC(=O)N/N=C(\C(=O)C(=O)Nc1ccc(Cl)c(C(F)(F)F)c1)c1nc2ccc(C(=O)c3ccccc3)cc2[nH]c1=O
64.1 µM: XF 498 CNS
47.3 µM: HOP-92 NSCLC
not listed: OVCAR-3 ovarian | LOX IMVI melanoma | SNB-75 CNS | HL-60(TB) leukemia | HOP-62 NSCLC | LXFL 529 NSCLC
> 100 µM: all other assays above
